ChEMBL document CHEMBL1201862, “PubChem BioAssay data set” (2004)
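Step 1: Grow cells in 96-well plates. Step 2: Expose to compound for 48 hours at 5 concentrations. Step 3: Interpolate endpoints linearly; if unreached, use highest concentration. GI50 is the concentration that inhibits growth by half.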 Activity calls are given as the source filed them. Rule as the data show it: active = GI50 up to about 1.1 µM and inactive = higher.

Columns and labels:
Assay in all cases: NCI anticancer screen, dose series, 48 h
SNB-19 = test system: SNB-19
COLO 205 = test system: COLO 205
IGROV-1 = test system: IGROV-1
A549 = test system: A549
786-0 = test system: 786-0
SK-MEL-2 = test system: SK-MEL-2
BT-549 = test system: BT-549
MDA-MB-435 = test system: MDA-MB-435
SNB-75 = test system: SNB-75
HOP-92 = test system: HOP-92
SF-268 = test system: SF-268
PC-3 = test system: PC-3
NCI-H23 = test system: NCI-H23
NCI-H460 = test system: NCI-H460
HCC 2998 = test system: HCC 2998
SK-MEL-28 = test system: SK-MEL-28
SK-OV-3 = test system: SK-OV-3
OVCAR-3 = test system: OVCAR-3
MDA-MB-231 = test system: MDA-MB-231
OVCAR-8 = test system: OVCAR-8

Structure (SMILES) | GI50 (SNB-19) | GI50 (COLO 205) | GI50 (IGROV-1) | GI50 (A549) | GI50 (786-0) | GI50 (SK-MEL-2) | GI50 (BT-549) | GI50 (MDA-MB-435) | GI50 (SNB-75) | GI50 (HOP-92) | GI50 (SF-268) | GI50 (PC-3) | GI50 (NCI-H23) | GI50 (NCI-H460) | GI50 (HCC 2998) | GI50 (SK-MEL-28) | GI50 (SK-OV-3) | GI50 (OVCAR-3) | GI50 (MDA-MB-231) | GI50 (OVCAR-8)
CC(=O)O[C@H]1CC[C@@]2(C)C(=CC[C@H]3[C@@H]4C/C(=C\c5ccncc5)[C@H](OC(C)=O)[C@@]4(C)CC[C@@H]32)C1 | 8.61 µM (inactive) | 4.08 µM (inactive) | 11.6 µM (inactive) | 6.08 µM (inactive) | 11.3 µM (inactive) | 16.7 µM (inactive) | 3.28 µM (inactive) | 12.9 µM (inactive) | 7.62 µM (inactive) | 3.48 µM (inactive) | 10.9 µM (inactive) | 18.2 µM (inactive) | 4.56 µM (inactive) | 10.1 µM (inactive) | 13.1 µM (inactive) | 5.74 µM (inactive) | 21.6 µM (inactive) | 11.3 µM (inactive) | 19.1 µM (inactive) | 11.8 µM (inactive)
O=C(O)c1ccccc1-c1ccccc1C(=O)Nc1ccc2c(c1)Cc1ccccc1-2 | 36.1 µM (inactive) | 17.2 µM (inactive) | 49.3 µM (inactive) | 29.2 µM (inactive) | 34.7 µM (inactive) | 22.6 µM (inactive) | 29.9 µM (inactive) | 41.9 µM (inactive) | 68.4 µM (inactive) | 46.8 µM (inactive) | 43.1 µM (inactive) | 41.1 µM (inactive) | 18 µM (inactive) | 19.2 µM (inactive) | 17.8 µM (inactive) | 40.8 µM (inactive) | 59.4 µM (inactive) | 25.3 µM (inactive) | 60.5 µM (inactive) | 43.6 µM (inactive)
O=[N+]([O-])c1cc2[nH]nnc2c2nonc12 | 30.7 µM (inactive) | 17.5 µM (inactive) | 51.9 µM (inactive) | 61.5 µM (inactive) | 38.5 µM (inactive) | 40.7 µM (inactive) | 11.1 µM (inactive) | 13.1 µM (inactive) | 38.5 µM (inactive) | 36.5 µM (inactive) | 59 µM (inactive) | 49.4 µM (inactive) | 26.5 µM (inactive) | 35.1 µM (inactive) | 17.9 µM (inactive) | 38.5 µM (inactive) | 46.8 µM (inactive) | 33.5 µM (inactive) | 32.7 µM (inactive) | 21.1 µM (inactive)
Clc1ccc2c(NCCCCN3OC3c3ccccc3)ccnc2c1 (stereo not given) | 6.89 µM (inactive) | 2.86 µM (inactive) | 9.27 µM (inactive) | 5.62 µM (inactive) | 2.47 µM (inactive) | 4.79 µM (inactive) | 13.4 µM (inactive) | 4.47 µM (inactive) | 5.82 µM (inactive) | 10.5 µM (inactive) | 8.07 µM (inactive) | 13.3 µM (inactive) | 15.8 µM (inactive) | 6.5 µM (inactive) | 2.89 µM (inactive) | 3.64 µM (inactive) | 19.6 µM (inactive) | 4.45 µM (inactive) | 2.27 µM (inactive) | 3.71 µM (inactive)
Nc1cc2c(c3ccccc13)C(CCl)CN2C(=O)c1cc2cc(NC(=O)Nc3ccc4[nH]c(C(=O)N5CC(CCl)c6c5cc(N)c5ccccc65)cc4c3)ccc2[nH]1 (stereo not given) | 0.0785 µM (active) | 0.687 µM (active) | 0.256 µM (active) | 0.0478 µM (active) | 0.0153 µM (active) | 0.995 µM (active) | 0.776 µM (active) | 0.548 µM (active) | 0.0297 µM (active) | 2.19 µM (inactive) | 0.0514 µM (active) | 0.171 µM (active) | 0.0239 µM (active) | < 0.01 µM (active) | 0.259 µM (active) | 0.659 µM (active) | 0.506 µM (active) | 0.467 µM (active) | 0.27 µM (active) | 0.0678 µM (active)
C[C@H]1[C@H](C)CC[C@]2(C(=O)OC3OC(CO)C(O)C(O)C3O)CC[C@]3(C)C(=CC[C@@H]4[C@@]5(C)C[C@@H](O)[C@@H]6OC(=O)c7cc(O)c(O)c(O)c7-c7c(cc(O)c(O)c7O)C(=O)OC[C@]6(CO)[C@@H]5CC[C@]43C)[C@H]12 (stereo not given in full) | 26.5 µM (inactive) | 41.7 µM (inactive) | > 86.3 µM (inactive) | 78 µM (inactive) | 14 µM (inactive) | > 65 µM (inactive) | > 100 µM (inactive) | 17.8 µM (inactive) | > 88.5 µM (inactive) | 63.1 µM (inactive) | > 83.4 µM (inactive) | > 62.4 µM (inactive) | 46.8 µM (inactive) | 23.7 µM (inactive) | 17.3 µM (inactive) | > 100 µM (inactive) | 31.7 µM (inactive) | 35.2 µM (inactive) | 12.4 µM (inactive) | 29.6 µM (inactive)
C[C@@H]1CC[C@@]2(OC1)O[C@H]1C[C@H]3[C@@H]4CC[C@H]5C[C@@H](OC6OC(CO)C(OC7OC(CO)C(O)C(OC8OCC(O)C(O)C8O)C7OC7OC(CO)C(O)C(O)C7O)C(O)C6O)[C@H](O)C[C@]5(C)[C@H]4CC[C@]3(C)[C@H]1[C@@H]2C (stereo not given in full) | 10.1 µM (inactive) | 2.46 µM (inactive) | 2.16 µM (inactive) | 0.855 µM (active) | > 10 µM (inactive) | 9.08 µM (inactive) | 2.94 µM (inactive) | 13 µM (inactive) | 13.6 µM (inactive) | 23.6 µM (inactive) | 7.71 µM (inactive) | 3.15 µM (inactive) | 2.11 µM (inactive) | 1.85 µM (inactive) | 12.3 µM (inactive) | 15.4 µM (inactive) | 10.8 µM (inactive) | 2.88 µM (inactive) | 1.76 µM (inactive) | 2.97 µM (inactive)
CCCCCCCCC/C=C1/CC(CO)(COC(=O)CC(C(C)C)C(C)C)OC1=O (stereo not given) | 10.5 µM (inactive) | 0.193 µM (active) | 15.4 µM (inactive) | 1.58 µM (inactive) | 1.35 µM (inactive) | 15.1 µM (inactive) | 14.3 µM (inactive) | 2.79 µM (inactive) | 4.51 µM (inactive) | 1.28 µM (inactive) | 11.3 µM (inactive) | 6.75 µM (inactive) | 13.1 µM (inactive) | 3.1 µM (inactive) | 2.39 µM (inactive) | 14.4 µM (inactive) | 17.4 µM (inactive) | 13.9 µM (inactive) | 2.59 µM (inactive) | 16 µM (inactive)
C/C=C1/CN2CCC34c5ccccc5N5C(=O)C(C6CC78c9ccccc9N9C(=O)C=CC(C%10CC7N6C/C%10=C/C)C98)=CC(C1CC23)C54 (stereo not given) | 7.87 µM (inactive) | 5.09 µM (inactive) | 4.43 µM (inactive) | 8.15 µM (inactive) | 4.67 µM (inactive) | 6.53 µM (inactive) | 8.77 µM (inactive) | 6.28 µM (inactive) | 6.62 µM (inactive) | 6.32 µM (inactive) | 6.89 µM (inactive) | 2.1 µM (inactive) | 5.98 µM (inactive) | 6.65 µM (inactive) | 5.9 µM (inactive) | 5.41 µM (inactive) | 9.79 µM (inactive) | 5.6 µM (inactive) | 2.32 µM (inactive) | 2.06 µM (inactive)
COc1ccc(/N=N\c2c(N)nn3c(SC)c(C#N)c(N)nc23)cc1 | 16.9 µM (inactive) | 12.9 µM (inactive) | 1.82 µM (inactive) | 18 µM (inactive) | 3.67 µM (inactive) | 2.76 µM (inactive) | 14.9 µM (inactive) | 13.3 µM (inactive) | 17.8 µM (inactive) | 9.4 µM (inactive) | 3.21 µM (inactive) | 6.87 µM (inactive) | 5.55 µM (inactive) | 15.8 µM (inactive) | 3.96 µM (inactive) | 6.5 µM (inactive) | 19.5 µM (inactive) | 2.82 µM (inactive) | 2.32 µM (inactive) | 5.04 µM (inactive)
Cc1c[nH]c2c(O)cc3c(c12)[C@H](CCl)CN3C(=O)c1cc2cc(NC(=O)Nc3ccc4[nH]c(C(=O)N5C[C@@H](CCl)c6c5cc(O)c5[nH]cc(C)c65)cc4c3)ccc2[nH]1 [BIZELESIN] | 28.5 µM (inactive) | 8.91 µM (inactive) | 19.4 µM (inactive) | 11 µM (inactive) | 4.9 µM (inactive) | 34.4 µM (inactive) | 24.9 µM (inactive) | 0.113 µM (active) | 1.09 µM (active) | 48.5 µM (inactive) | 2.82 µM (inactive) | 33.9 µM (inactive) | 1.9 µM (inactive) | < 0.001 µM (active) | 0.00109 µM (active) | 14.6 µM (inactive) | 0.141 µM (active) | 18.6 µM (inactive) | 26.5 µM (inactive) | 2.62 µM (inactive)
C=C1C(=O)OC2C1C(OC(=O)/C(C)=C/C)CC(O)(CCl)C1C(O)C3OC3(C)C21O (stereo not given) | > 50 µM (inactive) | 13.3 µM (inactive) | > 50 µM (inactive) | > 50 µM (inactive) | 15.9 µM (inactive) | > 50 µM (inactive) | 17.4 µM (inactive) | 48.5 µM (inactive) | > 50 µM (inactive) | 24.9 µM (inactive) | > 50 µM (inactive) | > 50 µM (inactive) | 34.5 µM (inactive) | > 50 µM (inactive) | > 50 µM (inactive) | > 50 µM (inactive) | > 50 µM (inactive) | 27.5 µM (inactive) | > 50 µM (inactive) | 13.2 µM (inactive)
